Results taken from patent publication US7365050B2, “Methods for modulating a drug-related effect or behavior” (The Regents of the University of California, priority 2003, dated 2008).
Where two headings read alike, the source gives them in different places.

Columns and labels:
[1] = system: Cav2.2 null mice and wild-type littermates; settings: 2 g/kg ethanol i.p., Cav2.2 null vs wild-type
Procedure: Mice were trained to remain for 180 s on a rotarod apparatus (Ugo Basile Biological Research, Varese, Italy) rotating at a fixed rate of 20 rpm. The first test session was carried out the following day. During a test session, each mouse was placed on the rotarod and the time taken for the animal to fall off the rod was recorded. Mice were then injected intraperitoneally with ethanol and re-tested every 15 min for 1 h. […] Three further days later, the mice were trained to remain on an accelerating (4-40 rpm) rotarod for 300s.

[2] = system: Cav2.2 null mice and wild-type littermates
Procedure: Both groups of mice were injected intraperitoneally with ethanol (3.6 g/kg in 0.9% w/v saline) and then assessed for loss of the righting reflex (LORR). Loss of the righting reflex was defined as a mouse being unable to right itself 3 times within 30 sec. Upon losing the righting reflex, mice were placed on their backs and the time taken for them to regain the righting reflex was measured. A mouse was defined as having regained the righting reflex when it was able to right itself 3 times within 30 sec. A blood sample was taken from the tail of each mouse when it regained the righting reflex in order to determine blood ethanol concentration. Blood was centrifuged at 10,000 g and serum blood alcohol concentration determined using an Analox AM-1 analyser (Analox Instruments, Luneburg Mass.). We determined the threshold concentration of ethanol required to induce LORR using the “up-and-down” method (Dixon, 1965; Findlay et al., 2002). […] If the first mouse lost the righting reflex, then the next mouse was given a lower ethanol dose. […] The log dose interval was 0.0138, corresponding to approximately a 0.1 g/kg difference between doses. The ED50 value was determined as described (Findlay et al., 2002), with 95% confidence intervals determined by the following equation: 95% CI=dosing increment×square root of (2/n)×1.96, where n=the last n trials (6) and 1.96 reflects the 0.05 α level (Dixon, 1965).

[3] = system: Cav2.2 null mice and wild-type littermates; remark: listed apart in the source
Procedure: The conditioned taste aversion study was carried out according to established protocols ([…] and Boyce, 2002) (Chester et al., 2003). Animals were singly housed and acclimatized to limited water access by allowing them access to water for decreasing periods of time (10, 8, 6 and 4 h per day on subsequent days) followed by 2-h daily access for one week. Following acclimatization, they were placed on the conditioning schedule consisting of 1-h access (13:00 to 14:00h) to the conditioned stimulus (CS, a solution of 1.2% (w/v) saline), followed immediately by a saline (0.9% w/v) injection. […] The following day they were allowed two hours of access to drinking water (13:00 to 15:00). This 2-d procedure constituted a single trial and was repeated 7 times to establish baseline consumption levels of 1.2% NaCl. […] Data were compared by two-way ANOVA with factors for injection and genotype.

[4] = system: Cav2.2 null mice and wild-type mice
Procedure: See Example 2. Mice were injected intraperitoneally with saline and placed in the central, access chamber of a three-chambered apparatus. The door to a second chamber (saline-paired chamber), off the central chamber, was then opened to allow mice access to the second chamber, into which the mice entered. The door was then closed and the mice remained in the second chamber for 5 min before being removed and returned to the home cage. On the following day, the procedure was repeated, except that the mice were given an intraperitoneal injection of ethanol (at the doses indicated in FIG. 2) and allowed to enter, by the same procedure as for the saline-paired side, a third chamber (drug-paired chamber), instead of the saline-paired chamber. The ethanol and saline-paired chambers differed in floor texture and wall color. Drug-paired and saline-paired chambers were assigned randomly, i.e., some mice received ethanol in the same type of chamber in which other mice received saline. This process, saline one day and ethanol the next, was then repeated three times further, resulting in a total of four saline/drug-chamber pairings. On the day immediately following the completion of this 8-day training period, the mice were placed into the central chamber and allowed free access to all three chambers for a total of 30 minutes. Time spent in each of the three chambers was analyzed for each genotype by paired two-tailed t-tests with Bonferroni correction for multiple comparisons. […] To control for a baseline preference for a particular chamber type, all mice received a 30-min test in the chambers prior to training.
Mice were trained in a conditioned place preference (CPP) apparatus (Med Associates, St. Albans, Vt.) that consisted of white and black chambers with different floor textures (black side with rod floor vs. white side with grid floor) that were separated by a central gray access compartment. To measure baseline preference for the test chambers, mice were allowed to roam freely in the entire apparatus for 30 min during the first day of the test. […] The ethanol-paired chamber was assigned randomly across subjects. For conditioning, mice were treated with ethanol (1.2, 2.0, or 2.8 grams/kg v/v in 0.9% saline) and immediately placed in one side for 5 min. On the next day, they were injected with an equivalent volume of saline and placed in the other side. This sequence was repeated four times for a total of 4 days ethanol and 4 days saline, with two rest days halfway through training. On the test day immediately following the final training day, mice were allowed free access to all 3 compartments for 30 min. CPP was assessed by comparing the time spent in the drug-paired chamber on the test day with the time spent in the saline-paired chamber and the central chamber on the test day by paired two-tailed t-tests with Bonferroni correction for multiple comparisons. The mice were considered to have developed CPP for ethanol if they spent more time in the ethanol-paired chamber compared with the other two chambers on the test day.

[5] = system: Cav2.2 null mice and wild-type littermates; settings: solutions containing 6% or 10% ethanol
[6] = 4 g/kg ethanol i.p., Cav2.2 null vs wild-type
N-type calcium channel = N-type calcium channel (Rattus norvegicus, UniProt Q02294); settings: PC12 cells, 25-200 mM ethanol for 2-8 days; cited from earlier work
[7] = system: Cav2.2 null mice and littermates; settings: alcohol vapor 3 days, 16 hours per day; Cav2.2 null vs littermates
Procedure: Handling-induced convulsions (HIC) were measured at various intervals over the next 48 hours.

Sequence of N-type calcium channel (Q02294 whole entry, looked up): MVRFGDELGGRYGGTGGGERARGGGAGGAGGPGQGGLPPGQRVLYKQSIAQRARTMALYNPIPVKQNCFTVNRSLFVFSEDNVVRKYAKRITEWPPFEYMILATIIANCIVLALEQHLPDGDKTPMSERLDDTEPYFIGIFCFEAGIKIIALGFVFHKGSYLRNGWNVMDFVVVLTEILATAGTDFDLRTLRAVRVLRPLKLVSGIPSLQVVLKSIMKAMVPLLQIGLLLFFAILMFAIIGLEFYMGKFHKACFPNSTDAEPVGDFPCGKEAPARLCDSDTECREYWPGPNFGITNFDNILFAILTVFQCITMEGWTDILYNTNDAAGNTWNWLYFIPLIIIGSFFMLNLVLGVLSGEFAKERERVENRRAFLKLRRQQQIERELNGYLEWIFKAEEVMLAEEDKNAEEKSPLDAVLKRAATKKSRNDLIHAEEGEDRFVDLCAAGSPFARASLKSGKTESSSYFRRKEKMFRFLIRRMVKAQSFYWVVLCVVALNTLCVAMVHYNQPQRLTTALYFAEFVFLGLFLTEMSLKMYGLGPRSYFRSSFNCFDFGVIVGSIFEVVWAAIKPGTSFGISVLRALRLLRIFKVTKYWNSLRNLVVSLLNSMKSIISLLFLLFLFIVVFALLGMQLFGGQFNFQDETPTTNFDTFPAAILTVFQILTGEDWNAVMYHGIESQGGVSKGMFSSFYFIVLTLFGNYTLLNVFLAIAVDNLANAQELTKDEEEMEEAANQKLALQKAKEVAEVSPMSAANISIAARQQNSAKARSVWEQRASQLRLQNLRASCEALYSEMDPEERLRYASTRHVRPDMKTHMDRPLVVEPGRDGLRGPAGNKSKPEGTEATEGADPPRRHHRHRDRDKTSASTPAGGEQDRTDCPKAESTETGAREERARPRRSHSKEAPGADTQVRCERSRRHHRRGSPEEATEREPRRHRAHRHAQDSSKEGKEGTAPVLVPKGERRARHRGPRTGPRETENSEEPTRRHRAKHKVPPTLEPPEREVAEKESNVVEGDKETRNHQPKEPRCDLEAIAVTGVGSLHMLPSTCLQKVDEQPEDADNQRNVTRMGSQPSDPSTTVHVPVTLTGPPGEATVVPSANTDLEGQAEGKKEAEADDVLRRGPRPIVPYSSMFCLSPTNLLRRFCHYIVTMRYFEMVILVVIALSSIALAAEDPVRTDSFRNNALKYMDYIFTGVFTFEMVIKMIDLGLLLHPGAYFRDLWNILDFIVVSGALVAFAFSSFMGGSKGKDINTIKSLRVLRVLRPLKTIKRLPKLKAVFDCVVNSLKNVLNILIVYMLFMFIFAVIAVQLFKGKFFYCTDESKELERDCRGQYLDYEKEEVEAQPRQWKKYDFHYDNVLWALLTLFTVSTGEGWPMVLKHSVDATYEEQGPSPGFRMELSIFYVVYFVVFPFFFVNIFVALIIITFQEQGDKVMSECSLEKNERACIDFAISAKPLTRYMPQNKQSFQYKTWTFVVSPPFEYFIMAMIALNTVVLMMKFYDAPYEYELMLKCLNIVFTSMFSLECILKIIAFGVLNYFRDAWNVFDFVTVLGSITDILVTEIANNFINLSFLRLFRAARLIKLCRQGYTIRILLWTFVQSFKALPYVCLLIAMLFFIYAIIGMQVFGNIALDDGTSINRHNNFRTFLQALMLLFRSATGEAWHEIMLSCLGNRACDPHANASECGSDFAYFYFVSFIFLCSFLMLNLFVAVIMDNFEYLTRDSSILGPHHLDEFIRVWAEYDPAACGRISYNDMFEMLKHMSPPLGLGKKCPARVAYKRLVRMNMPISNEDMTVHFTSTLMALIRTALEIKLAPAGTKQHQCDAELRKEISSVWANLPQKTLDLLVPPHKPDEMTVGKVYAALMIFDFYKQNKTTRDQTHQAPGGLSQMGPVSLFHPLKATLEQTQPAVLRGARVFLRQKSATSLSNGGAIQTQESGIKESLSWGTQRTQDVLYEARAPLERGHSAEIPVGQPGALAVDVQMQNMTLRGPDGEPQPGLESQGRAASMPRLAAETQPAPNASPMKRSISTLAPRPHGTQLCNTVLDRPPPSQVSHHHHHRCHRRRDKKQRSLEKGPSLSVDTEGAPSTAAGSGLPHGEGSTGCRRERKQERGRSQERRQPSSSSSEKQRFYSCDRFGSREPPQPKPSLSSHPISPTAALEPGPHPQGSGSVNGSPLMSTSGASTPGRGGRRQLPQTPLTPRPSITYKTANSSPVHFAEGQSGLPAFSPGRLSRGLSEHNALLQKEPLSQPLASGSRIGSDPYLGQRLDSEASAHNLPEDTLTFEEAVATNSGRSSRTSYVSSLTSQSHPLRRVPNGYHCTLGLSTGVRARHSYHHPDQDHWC

CCO [ethanol]
latency to fall, accelerating (4-40 rpm) rotarod [1]: shorter latency to fall
blood ethanol concentration at regaining righting reflex, Cav2.2 null vs wild-type ([2]; 3.6 g/kg ethanol i.p.): higher blood ethanol concentration
decrease in duration of ethanol-induced LORR, Cav2.2 null vs wild-type ([2]; 3.6 g/kg ethanol i.p.): 70%
increase in threshold ethanol dose that induces LORR, Cav2.2 null vs wild-type ([2]; 10% v/v ethanol i.p., up-and-down method): 16%
duration of ethanol-induced LORR ([2]; inbred 129/SvJae background, Cav2.2 null vs wild-type): decreased duration
conditioned taste aversion to 1.2% NaCl ([3]; 2 g/kg ethanol injection, both genotypes): both genotypes rapidly developed conditioned taste aversion
magnitude of conditioned taste aversion ([3]; 2 g/kg ethanol, Cav2.2 null vs wild-type): reduced
conditioned place preference ([4]; Cav2.2 null mice, 2 g/kg ethanol): completely absent
conditioned place preference ([4]; both genotypes, 1.2 g/kg and 2.8 g/kg ethanol): Neither genotype showed place preference or aversion
conditioned place preference ([4]; inbred 129/SvJae background, Cav2.2 null): no conditioned place preference
conditioned place preference ([4]; inbred 129/SvJae background, wild-type, ethanol 1.5 g/kg): significant conditioned place preference
conditioned place preference ([4]; wild-type mice, 2 g/kg ethanol): robust place preference
alcohol consumption, Cav2.2 null mice less than wild-type littermates [5]: about 30%
clearance of ethanol from the blood [6]: no difference between the genotypes
binding sites for 125I-ω-conotoxin GVIA (N-type calcium channel): reversible time- and concentration-dependent increase
handling-induced convulsions during alcohol withdrawal [7]: increased handling-induced convulsions
